We go through 27 compounds from patent US20230312605A1, “PYRROLO[2,1-F][1,2,4]TRIAZINES AND PREPARATION AND USES THEREOF” (BioSplice Therapeutics, Inc., priority 2021, published 2023).

The assay deals with recombinant DYRK1A kinase (Homo sapiens (Human), UniProt Q13627). As to the kind of experiment: DYRK1A kinase assay (Ser/Thr 18 peptide Z-lyte FRET assay). Format: biochemical. The following applies: recombinant DYRK1A 0.25 µg/mL, ATP 15 µM, Ser/Thr peptide 18 4 µM, one hour at room temperature; table head prints EC50, method says IC50. Here is the method: Representative compounds were screened using the assay procedure for DYRK1A kinase activity as described below.
Each compound was dissolved in DMSO as a 10 mM stock and used to prepare compound source plates. Serial dilution (1:3, 11-point dose-response curves from 10 µM to 0.00016 µM) and compound transfer was performed using the ECHO 550 (Labcyte, Sunnyvale, CA) into 1536-well black-walled round bottom plates (Corning).
The DYRK1A kinase assay was run using the Ser/Thr 18 peptide Z-lyte assay kit according to manufacturer’s instructions (Life Technologies- a Division of Thermo-Fisher). This is a non-radioactive assay using fluorescence resonance energy transfer (FRET) between coumarin and fluorescein to detect kinase activity which is represented as a ratio of coumarin emission/fluorescein emission.
Briefly, recombinant DYRK1A kinase, ATP and Ser/Thr peptide 18 were prepared in 1X Kinase buffer to final concentrations of 0.25 µg/mL, 15 µM, and 4 µM respectively. The mixture was allowed to incubate with the representative compounds for one hour at room temperature. All reactions were performed in duplicate. Unphosphorylated (“0% Control”) and phosphorylated (“100% control”) forms of Ser/Thr 18 served as control reactions. Additionally, an 11-point dose-response curve of Staurosporine (1uM top) was run to serve as a positive compound control.
After incubation, Development Reagent A was diluted in Development Buffer then added to the reaction and allowed to further incubate for one hour at room temperature. The plate was read at Ex 400 Em 455 to detect the coumarin signal and Ex 400 Em 520 to measure the signal (EnVision Multilabel Plate Reader, PerkinElmer).
The Emission ratio (Em) was calculated as a ratio of the coumarin (C) emission signal (at 445 nm)/Fluorescein (F) emission signal (at 520 nm). The percent phosphorylation was then calculated using the following formula: [1 — ((Em ratio X F100%)—C100%)/ ((C0%—C100%) + (Em ratio X (F100% - F0%)))]. Dose-response curves were generated, and inhibitory concentration (IC50) values were calculated using non-linear regression curve fit in the Dotmatics’ Studies Software (Bishops Stortford, UK).

By EC50 is commonly meant the midpoint of the concentration-response curve.

With `Cc1nc2ccc(-c3ccn4nc(NC5CCC6(CC5)CN(C)C6)ncc34)nc2n1CC(F)F` [Compound 1846, 5-(3-(2,2-Difluoroethyl)-2-methyl-3H-imidazo[4,5-b]pyridin-5-yl)-N-(2-methyl-2-azaspiro[3.5]nonan-7-yl)pyrrolo[2,1-f][1,2,4]triazin-2-amine], the half-maximal effective concentration (EC50) came out at 4 nM.
`CC(=O)N1C[C@@H](F)[C@@H](Nc2ncc3c(-c4ccc5nc(C)n(CC(F)F)c5n4)ccn3n2)C1` [Compound 1940, 1-((3S,4R)-3-((5-(3-(2,2-Difluoroethyl)-2-methyl-3H-imidazo[4,5-b]pyridin-5-yl)pyrrolo[2,1-f] [1,2,4]triazin-2-yl)amino)-4-fluoropyrrolidin-1-yl)ethan-1-one]: the EC50 was 7 nM.
Consider `Cc1nc2c(F)cc(-c3ccn4nc(NCC(C)(C)F)ncc34)cc2n1C(C)C` [Compound 500], for which the EC50 worked out at 44 nM.
With `Cc1nc2ccc(-c3ccn4nc(NC5CCN(C)CC5)ncc34)nc2n1CC(F)F` [Compound 1131, 5-(3-(2,2-Difluoroethyl)-2-methyl-3H-imidazo[4,5-b]pyridin-5-yl)-N-(1-methylpiperidin-4-yl)pyrrolo[2,1-f][1,2,4]triazin-2-amine] the figure was 16 nM; with `Cc1nc2ncc(-c3ccn4nc(NCC(C)(C)F)ncc34)cc2n1CC(F)F` [Compound 642, 5-(1-(2,2-difluoroethyl)-2-methyl-1H-imidazo[4,5-b]pyridin-6-yl)-N-(2-fluoro-2-methylpropyl)pyrrolo[2,1-f][1,2,4]triazin-2-amine], 4 nM; with `Cc1nc2ccc(-c3ccn4nc(N[C@H]5CN(C)C[C@@H]5F)ncc34)nc2n1CC(F)F` [Compound 1901, 5-(3-(2,2-Difluoroethyl)-2-methyl-3H-imidazo[4,5-b]pyridin-5-yl)-N-((3S,4S)-4-fluoro-1-methylpyrrolidin-3-yl)pyrrolo [2,1-f] [1,2,4]triazin-2-amine], 4 nM.
On to `CN(C)[C@H]1CC[C@@H](Nc2ncc3c(-c4ccc5ncccc5c4)ccn3n2)CC1` [Compound 1336, cis-N^1,N^1-Dimethyl-N^4-(5-(quinolin-6-yl)pyrrolo[2,1-f][1,2,4]triazin-2-yl) cyclohexane-1,4-diamine], for which the concentration for a half-maximal effect (EC50) is 25 nM.
Turning to `CC(=O)N[C@H]1CC[C@@H](Nc2ncc3c(-c4ccc5nc(C)n(CC(F)F)c5n4)ccn3n2)CC1` [Compound 1898, N-(cis-4-((5-(3-(2,2-Difluoroethyl)-2-methyl-3H-imidazo [4,5-b]pyridin-5-yl)pyrrolo[2,1-f] [1,2,4]triazin-2-yl)amino)cyclohexyl)acetamide], the 50% effective concentration (EC50) came out at 3 nM.
With `[2H]C([2H])([2H])O[C@H]1CC[C@@H](Nc2ncc3c(-c4ccc5nc(C)n(CC(F)F)c5n4)ccn3n2)CC1` [Compound 1803, 5-(3-(2,2-Difluoroethyl)-2-methyl-3H-imidazo[4,5-b]pyridin-5-yl)-N-(cis-4-(methoxy-d3)cyclohexyl)pyrrolo[2,1-f][1,2,4]triazin-2-amine] the figure was 3 nM; with `Cc1nc2ncc(-c3ccn4nc(N[C@H]5CC[C@@H](OCC(F)F)CC5)ncc34)cc2n1CC(F)F` [Compound 1877], 2 nM; with `CC(=O)N1CC[C@@H](Nc2ncc3c(-c4ccc5nc(C)n(CC(F)F)c5n4)ccn3n2)[C@@H](F)C1` [Compound 1951, 1-((3S,4R)-4-((5-(3-(2,2-Difluoroethyl)-2-methyl-3H-imidazo[4,5-b]pyridin-5-yl)pyrrolo[2,1-f] [1,2,4]triazin-2-yl)amino)-3-fluoropiperidin-1-yl)ethan-1-one], 5 nM.
Under `Cc1nc2ccc(-c3ccn4nc(N[C@@H]5CCOC[C@@H]5O)ncc34)nc2n1CC(F)F` [Compound 1865, (3R,4R)-4-((5-(3-(2,2-Difluoroethyl)-2-methyl-3H-imidazo[4,5-b]pyridin-5-yl)pyrrolo[2,1-f][1,2,4]triazin-2-yl)amino)tetrahydro-2H-pyran-3-ol] stands 20 nM; under `CC(C)(F)CNc1ncc2c(-c3ccc4nccn4n3)ccn2n1` [Compound 145, N-(2-Fluoro-2-methylpropyl)-5-(imidazo [1,2-b]pyridazin-6-yl)pyrrolo[2,1-f] [1,2,4]triazin-2-amine], 45 nM; under `Cc1nc2ncc(-c3ccn4nc(NC5CCN(CC(F)F)CC5)ncc34)cc2n1CC(F)F` [Compound 1882, 5-(1-(2,2-Difluoroethyl)-2-methyl-1H-imidazo[4,5-b]pyridin-6-yl)-N-(1-(2,2-difluoroethyl)piperidin-4-yl)pyrrolo[2,1-f][1,2,4]triazin-2-amine], 4 nM.
Regarding `CC(=O)N[C@H]1CC[C@H](Nc2ncc3c(-c4ccc5nc(C)n(CC(F)F)c5n4)ccn3n2)CC1` [Compound 1844, N-(trans-4-((5-(3-(2,2-Difluoroethyl)-2-methyl-3H-imidazo[4,5-b]pyridin-5-yl)pyrrolo[2,1-f][1,2,4]triazin-2-yl)amino)cyclohexyl)acetamide], the concentration giving a half-maximal response (EC50) amounted to 3 nM.
With `Cc1nc2ncc(-c3ccn4nc(NC5CCC6(CC5)OCCO6)ncc34)cc2n1CC(F)F` [Compound 1880, 5-(1-(2,2-Difluoroethyl)-2-methyl-1H-imidazo[4,5-b]pyridin-6-yl)-N-(1,4-dioxaspiro[4.5]decan-8-yl)pyrrolo[2,1-f][1,2,4]triazin-2-amine] the figure was 3 nM.
Regarding `Cc1nc2ccc(-c3ccn4nc(N[C@H]5CCCOC5)ncc34)nc2n1CC(F)F` [Compound 1864, (S)-5-(3-(2,2-Difluoroethyl)-2-methyl-3H-imidazo[4,5-b]pyridin-5-yl)-N-(tetrahydro-2H-pyran-3-yl)pyrrolo[2,1-f][1,2,4]triazin-2-amine], the EC50 was 3 nM.
With `Cc1nc2ccc(-c3ccn4nc(N[C@H]5CC[C@@H](OC(F)(F)F)CC5)ncc34)nc2n1CC(F)F` [Compound 1792, 5-(3-(2,2-Difluoroethyl)-2-methyl-3H-imidazo[4,5-b]pyridin-5-yl)-N-(cis-4-(trifluoromethoxy)cyclohexyl)pyrrolo[2,1-f][1,2,4]triazin-2-amine] the figure was 26 nM; with `Cc1nc2ccc(-c3ccn4nc(N[C@H]5C[C@@H](N6CCOCC6)C5)ncc34)nc2n1CC(F)F` [Compound 1892, 5-(3-(2,2-Difluoroethyl)-2-methyl-3H-imidazo[4,5-b]pyridin-5-yl)-N-(cis-3-morpholinocyclobutyl)pyrrolo[2,1-f][1,2,4]triazin-2-amine], 2 nM.
Regarding `C[C@H](Nc1ncc2c(-c3cnc4nccn4c3)ccn2n1)C1CC1` [Compound 230, (S)-N-(1-Cyclopropylethyl)-5-(imidazo[1,2-a]pyrimidin-6-yl)pyrrolo[2,1-f] [1,2,4]triazin-2-amine], the 50% effective concentration (EC50) came to 58 nM.
As to `FC1(CNc2ncc3c(-c4cnc5nccn5c4)ccn3n2)CCC1` [Compound 227, N-((1-Fluorocyclobutyl)methyl)-5-(imidazo[1,2-a]pyrimidin-6-yl)pyrrolo [2,1-f][1,2,4]triazin-2-amine], the concentration for a half-maximal effect (EC50) came out at 4 nM.
Under `Cc1nc2ccc(-c3ccn4nc(NC5CC6(CCN(C)CC6)C5)ncc34)nc2n1CC(F)F` [Compound 1836, 5-(3-(2,2-Difluoroethyl)-2-methyl-3H-imidazo[4,5-b]pyridin-5-yl)-N-(7-methyl-7-azaspiro[3.5]nonan-2-yl)pyrrolo[2,1-f][1,2,4]triazin-2-amine] stands 3 nM.
On to `c1cn2cc(-c3ccn4nc(NCC5CCCO5)ncc34)ccc2n1` (stereo not drawn) [Compound 21, 5-(Imidazo[1,2-a]pyridin-6-yl)-N-((tetrahydrofuran-2-yl)methyl)pyrrolo[2,1-f][1,2,4]triazin-2-amine], for which the EC50 turned out to be 61 nM.
Under `CC(C)CNc1ncc2c(-c3ccc4nccn4c3)ccn2n1` [Compound 2, 5-(Imidazo[1,2-a]pyridin-6-yl)-N-isobutylpyrrolo[2,1-f][1,2,4]triazin-2-amine] stands 41 nM; under `C[C@]1(O)CC[C@H](Nc2ncc3c(-c4ccn5nccc5c4)ccn3n2)CC1` [Compound 1891, trans-1-Methyl-4-((5-(pyrazolo[1,5-a]pyridin-5-yl)pyrrolo[2,1-f][1,2,4]triazin-2-yl)amino)cyclohexan-1-ol], 11 nM.
As to `Cc1nc2ccc(-c3ccn4nc(N[C@H]5C[C@@H](CO)C5)ncc34)nc2n1CC(F)F` [Compound 1834, (cis-3-((5-(3-(2,2-Difluoroethyl)-2-methyl-3H-imidazo[4,5-b]pyridin-5-yl)pyrrolo[2,1-f][1,2,4]triazin-2-yl)amino)cyclobutyl)methanol], the half-maximal effective concentration (EC50) is 3 nM.
Under `Cc1nc2ccc(-c3ccn4nc(NCC5CN(C)CCO5)ncc34)nc2n1CC(F)F` (stereo not drawn) [Compound 1848, 5-(3-(2,2-Difluoroethyl)-2-methyl-3H-imidazo[4,5-b]pyridin-5-yl)-N-((4-methylmorpholin-2-yl)methyl)pyrrolo[2,1-f][1,2,4]triazin-2-amine] stands 5 nM.
